# Data taken from ChEMBL document CHEMBL2069187, “2-Amino-1,3,4-thiadiazole derivative (FABT) inhibits the extracellular signal-regulated kinase pathway and induces cell cycle arrest in human non-small lung carcinoma cells” (Bioorg Med Chem Lett, 2012).
# Calls of active or inactive are those of the source. No cut-off for these calls is given here.
# Columns and labels:
# A549 [1] = experiment: Cell cycle arrest in human A549 cells assessed as accumulation at G2/M phase at 25 uM after 24 hrs by acridine orange staining-based flow cytometry (Rvb =16.66 +/- 0.622 %); assay type: functional
# A549 [2] = experiment: Effect on p21Waf1/Cip1 protein expression in human A549 cells at 1 to 100 uM after 24 hrs by Western blot analysis; assay type: functional, cell-based
# A549 [3] = experiment: Inhibition of CREB phosphorylation in human A549 cells after 24 hrs by Western blot analysis; assay type: cell-based
# A549 [4] = experiment: Cell cycle arrest in human A549 cells assessed as accumulation at G2/M phase at 50 uM after 24 hrs by acridine orange staining-based flow cytometry (Rvb =16.66 +/- 0.622 %); assay type: functional
# [5] = target: Dual specificity mitogen-activated protein kinase kinase; MEK1/2 (Homo sapiens) (UniProt P36507+Q02750); experiment: Inhibition of MEK1/2 phosphorylation in human A549 cells after 24 hrs by Western blot analysis; assay type: cell-based
# Sequence of Dual specificity mitogen-activated protein kinase kinase; MEK1/2 (Homo sapiens) (P36507 whole entry, looked up): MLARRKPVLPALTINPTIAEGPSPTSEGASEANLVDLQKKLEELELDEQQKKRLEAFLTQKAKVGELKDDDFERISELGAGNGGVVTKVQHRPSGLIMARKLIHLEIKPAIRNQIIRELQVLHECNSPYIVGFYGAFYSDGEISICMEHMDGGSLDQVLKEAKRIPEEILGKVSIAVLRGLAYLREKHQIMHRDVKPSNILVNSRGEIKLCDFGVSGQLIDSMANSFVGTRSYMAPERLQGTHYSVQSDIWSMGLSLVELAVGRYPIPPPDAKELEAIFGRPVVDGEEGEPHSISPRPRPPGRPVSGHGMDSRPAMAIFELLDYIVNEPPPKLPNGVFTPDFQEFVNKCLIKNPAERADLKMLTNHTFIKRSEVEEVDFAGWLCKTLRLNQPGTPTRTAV
# Sequence of Dual specificity mitogen-activated protein kinase kinase; MEK1/2 (Homo sapiens) (Q02750 whole entry, looked up): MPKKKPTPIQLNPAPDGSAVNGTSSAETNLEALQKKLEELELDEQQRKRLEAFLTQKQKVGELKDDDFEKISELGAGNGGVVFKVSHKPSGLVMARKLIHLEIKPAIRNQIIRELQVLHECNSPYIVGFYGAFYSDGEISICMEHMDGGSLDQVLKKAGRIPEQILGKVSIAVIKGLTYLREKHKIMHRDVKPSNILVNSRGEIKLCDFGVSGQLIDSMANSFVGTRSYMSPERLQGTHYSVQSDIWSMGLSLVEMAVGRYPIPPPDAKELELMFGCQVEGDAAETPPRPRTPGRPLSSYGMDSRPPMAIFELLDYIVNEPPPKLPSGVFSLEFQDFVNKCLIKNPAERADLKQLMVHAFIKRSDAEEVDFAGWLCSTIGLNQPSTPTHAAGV
# A549 [6] = experiment: Cell cycle arrest in human A549 cells assessed as accumulation at G2/M phase at 10 uM after 24 hrs by acridine orange staining-based flow cytometry (Rvb =16.66 +/- 0.622 %); assay type: functional
# Homo sapiens [7] = species: Homo sapiens; experiment: Antiproliferative activity against human lung adenocarcinoma cells; assay type: functional
# [8] = target: T1, Mitogen-activated protein kinase; ERK1/ERK2 (Homo sapiens) (UniProt P27361+P28482); experiment: Inhibition of ERK1/2 phosphorylation in human A549 cells assessed as peak effect time by Western blot analysis; assay type: cell-based
# T1 sequence (P27361 whole entry, looked up): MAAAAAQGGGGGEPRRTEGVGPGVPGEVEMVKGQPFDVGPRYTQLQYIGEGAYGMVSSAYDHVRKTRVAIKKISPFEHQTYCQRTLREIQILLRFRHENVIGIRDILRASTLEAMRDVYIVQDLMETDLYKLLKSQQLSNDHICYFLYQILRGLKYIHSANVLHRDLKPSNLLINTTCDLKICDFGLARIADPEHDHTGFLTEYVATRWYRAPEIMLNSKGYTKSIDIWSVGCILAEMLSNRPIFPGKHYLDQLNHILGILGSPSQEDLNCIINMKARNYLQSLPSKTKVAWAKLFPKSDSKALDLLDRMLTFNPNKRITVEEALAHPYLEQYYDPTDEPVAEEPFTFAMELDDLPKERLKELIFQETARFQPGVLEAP
# T1 sequence (P28482 whole entry, looked up): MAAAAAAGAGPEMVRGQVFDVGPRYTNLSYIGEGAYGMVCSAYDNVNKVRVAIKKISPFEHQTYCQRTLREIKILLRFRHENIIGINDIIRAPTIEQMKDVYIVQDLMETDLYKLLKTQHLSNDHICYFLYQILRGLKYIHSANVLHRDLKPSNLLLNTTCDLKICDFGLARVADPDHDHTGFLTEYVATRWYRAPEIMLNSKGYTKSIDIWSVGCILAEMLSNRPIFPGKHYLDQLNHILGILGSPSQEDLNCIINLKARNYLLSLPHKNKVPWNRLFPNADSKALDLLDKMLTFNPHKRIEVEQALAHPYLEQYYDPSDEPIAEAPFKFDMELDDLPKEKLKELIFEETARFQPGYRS
# [9] = target: T1, Mitogen-activated protein kinase; ERK1/ERK2 (Homo sapiens); experiment: Inhibition of PMA-stimulated ERK1/2 phosphorylation in human A549 cells after 24 hrs by Western blot analysis; assay type: cell-based
# Medulloblastoma cell = experiment: Antiproliferative activity against human medulloblastoma cells; assay type: functional
# A549 [10] = experiment: Effect on CREB1 gene expression in human A549 cells at 5 to 25 uM after 24 hrs by RT-PCR analysis; assay type: functional, cell-based
# [11] = Antiproliferative activity against human skin fibroblast
# A549 [12] = experiment: Cell cycle arrest in human A549 cells assessed as accumulation at G0/G1 phase at 50 uM after 24 hrs by acridine orange staining-based flow cytometry (Rvb =44.85 +/- 0.866 %); assay type: functional
# A549 [13] = experiment: Cell cycle arrest in human A549 cells assessed as accumulation at G0/G1 phase at 25 uM after 24 hrs by acridine orange staining-based flow cytometry (Rvb =44.85 +/- 0.866 %); assay type: functional
# A549 [14] = experiment: Cell cycle arrest in human A549 cells assessed as accumulation at G0/G1 phase at 10 uM after 24 hrs by acridine orange staining-based flow cytometry (Rvb =44.85 +/- 0.866 %); assay type: functional
# A549 [15] = experiment: Cell cycle arrest in human A549 cells assessed as accumulation at S phase at 25 uM after 24 hrs by acridine orange staining-based flow cytometry (Rvb =26.89 +/- 2.997 %); assay type: functional
# A549 [16] = experiment: Effect on total ERK1/2 levels in human A549 cells by Western blot analysis; assay type: functional, cell-based
# A549 [17] = experiment: Effect on p27/Kip protein expression in human A549 cells at 1 to 100 uM after 24 hrs by Western blot analysis; assay type: functional, cell-based
# Rhabdomyosarcoma cell = experiment: Antiproliferative activity against human rhabdomyosarcoma cells; assay type: functional, cell-based
# Homo sapiens [18] = species: Homo sapiens; experiment: Antiproliferative activity against human colon adenocarcinoma cells; assay type: functional
# A549 [19] = experiment: Cell cycle arrest in human A549 cells assessed as accumulation at S phase at 50 uM after 24 hrs by acridine orange staining-based flow cytometry (Rvb =26.89 +/- 2.997 %); assay type: functional
# [20] = target: T1, Mitogen-activated protein kinase; ERK1/ERK2 (Homo sapiens); experiment: Inhibition of ERK1/2 phosphorylation in human A549 cells at 25 uM by Western blot analysis; assay type: cell-based; details: TDE = time-dependent effect
# [21] = target: T1, Mitogen-activated protein kinase; ERK1/ERK2 (Homo sapiens); experiment: Inhibition of ERK1/2 phosphorylation in human A549 cells after 24 hrs by Western blot analysis; assay type: cell-based
# [22] = Antiproliferative activity against human astrocytes; assay type: cell-based; details: astrocyte
# Hepatocyte = experiment: Antiproliferative activity against human hepatocytes; assay type: cell-based
# Glioma cell = experiment: Antiproliferative activity against human glioma cells; assay type: functional, cell-based
# A549 [23] = experiment: Cell cycle arrest in human A549 cells assessed as accumulation at S phase at 10 uM after 24 hrs by acridine orange staining-based flow cytometry (Rvb =26.89 +/- 2.997 %); assay type: functional
# A549 [24] = experiment: Inhibition of Rsk90 phosphorylation in human A549 cells after 24 hrs by Western blot analysis; assay type: cell-based
# A549 [25] = experiment: Effect on cyclinD1 protein expression in human A549 cells at 1 to 100 uM after 24 hrs by Western blot analysis; assay type: functional, cell-based
# A549 [26] = experiment: Effect on total ERK1/2 levels in human A549 cells by Western blot analysis in presence of PMA; assay type: functional, cell-based
# Homo sapiens [27] = species: Homo sapiens; experiment: Antiproliferative activity against human neuroblastoma cells; assay type: functional, cell-based
# A549 [28] = experiment: Cell cycle arrest in human A549 cells after 24 hrs by acridine orange staining-based flow cytometry; assay type: functional
# A549 [29] = experiment: Effect on ERK1 gene expression in human A549 cells at 5 to 25 uM after 24 hrs by RT-PCR analysis; assay type: functional, cell-based
structure (smiles),measurement,setting,value
Oc1ccc(-c2nnc(Nc3ccc(F)cc3)s2)c(O)c1,Activity,A549 [1],11.03%
same,Activity,A549 [2],inactive
same,inhibition,A549 [3],Active
same,Activity,A549 [4],5.403%
same,inhibition,[5],Active
same,Activity,A549 [6],12.89%
same,Activity,Homo sapiens [7],Active
same,TIME,[8],24 h
same,inhibition,[9],Dose-dependent effect
same,Activity,Medulloblastoma cell,Active
same,Activity,A549 [10],inactive
same,Activity,[11],Non-toxic
same,Activity,A549 [12],57.4%
same,Activity,A549 [13],46.97%
same,Activity,A549 [14],43.4%
same,Activity,A549 [15],19.84%
same,Activity,A549 [16],inactive
same,Activity,A549 [17],inactive
same,Activity,Rhabdomyosarcoma cell,Active
same,Activity,Homo sapiens [18],Active
same,Activity,A549 [19],11.31%
same,inhibition,[20],tde
same,inhibition,[21],Dose-dependent effect
same,Activity,[22],Non-toxic
same,Activity,Hepatocyte,Non-toxic
same,Activity,Glioma cell,Active
same,Activity,A549 [23],22.62%
same,inhibition,A549 [24],Active
same,Activity,A549 [25],inactive
same,Activity,A549 [26],inactive
same,Activity,Homo sapiens [27],Active
same,Activity,A549 [28],Dose-dependent effect
same,Activity,A549 [29],inactive
